Columns and labels:
MEK = assay: Cell-based mechanism assay in A375 cell line, MEK inhibition detected by reduced ERK phosphorylation (AlphaScreen SureFire); conditions: A375 cell line (melanoma), phospho-ERK levels, compounds incubated 1 hour at 37° C.
Description: To investigate whether a compound is able to inhibit the activity of MEK in cells, a mechanism-based assay using A375 cell line (melanoma) was developed. In this assay (AlphaScreen, PerkinElmer), inhibition of MEK was detected by reduced ERK phosphorylation. A375 cells were cultured in a tissue culture flask to 80% confluence in DMEM plus 10% fetal bovine serum. Cells were collected and plated onto 96 well culture plates at 3×10^4 cells/well. Plates were incubated overnight at 37° C. with 5% CO2 to allow cells to adhere. Compounds were added to the plates and incubated at 37° C. for 1 hour. After removing the medium, 100 μl of cell lysis buffer were added to each well and 4 μl of cell lysate were transferred into a 384 well white Proxiplate (PerkinElmer). The phospho-ERK levels were determined by following the standard protocol supplied with the PerkinElmer SureFire Phospho-ERK 1/2 Assay Kit®. Plates were read out by EnVision (PerkinElmer). The data were analyzed using GraphPad Prism.

Mek1 = molecular target: T1, Mek1 (Homo sapiens, UniProt Q02750); assay: Mek1 kinase assay (LANCE), enzymatic activity; format: biochemical; conditions: Mek1 0.25 nM, 50 μM ATP, 2 nM inactive Erk1, 90 min at 23° C.
T1 construct: purchased Millipore
T1 sequence (Q02750 whole entry, species assumed): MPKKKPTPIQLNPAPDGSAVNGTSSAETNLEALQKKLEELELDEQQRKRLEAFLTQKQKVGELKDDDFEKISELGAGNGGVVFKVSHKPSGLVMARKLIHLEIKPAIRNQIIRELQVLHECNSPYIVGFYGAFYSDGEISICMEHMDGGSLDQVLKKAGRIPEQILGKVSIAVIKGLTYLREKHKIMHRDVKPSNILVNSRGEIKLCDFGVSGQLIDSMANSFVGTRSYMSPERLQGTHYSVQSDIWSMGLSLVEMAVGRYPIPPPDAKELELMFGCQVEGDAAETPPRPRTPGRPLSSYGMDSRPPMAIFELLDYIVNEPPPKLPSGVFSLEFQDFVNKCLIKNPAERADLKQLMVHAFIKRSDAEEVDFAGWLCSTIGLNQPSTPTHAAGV
Description: A Mek1 kinase assay (LANCE, PerkinElmer) was developed for supporting compound profiling and lead optimization. […] Then the phosphorylated Erk1 was able to phosphorylate ULight™-MBP peptide (PerkinElmer). The phosphorylated peptide was detected by Europium-anti-phospho-MBP (PerkinElmer). […] After quenching the reaction, 2 nM Europium-anti-phospho-MBP was added to the reaction mixture and incubated for 60 min, followed by a detection using EnVision. The IC50 values were derived through a curve fitting using GraFit.

Row | IC50 (MEK) [nM] | IC50 (Mek1) [nM] | Structure (SMILES)
1 | < 100 | < 100 | COc1c(C(=O)NOCCO)c(Nc2ccc(I)cc2F)n(C)c(=O)c1C
2 | < 100 | < 100 | Cn1c(Nc2ccc(I)cc2F)c(C(=O)NOCCO)c2occc2c1=O
3 | < 100 | < 100 | Cn1c(Nc2ccc(I)cc2F)c(C(=O)NOC[C@H](O)CO)c2occc2c1=O
4 | < 100 | < 100 | Cn1c(Nc2ccc(I)cc2Cl)c(C(=O)NOCCO)c2occc2c1=O
5 | < 100 | < 5000 | Cn1c(Nc2ccc(I)cc2F)c(C(=O)NCCCO)c2occc2c1=O
6 | < 100 | < 1000 | Cn1c(Nc2ccc(I)cc2F)c(C(=O)NOCCO)c2sccc2c1=O
7 | < 100 | < 1000 | Cc1nc2c(=O)n(C)c(Nc3ccc(I)cc3F)c(C(=O)NOCCO)c2o1
8 | < 100 | < 5000 | Cc1noc2c(C(=O)NOCCO)c(Nc3ccc(I)cc3F)n(C)c(=O)c12
9 | < 100 | < 1000 | Cc1coc2c(C(=O)NOCCO)c(Nc3ccc(I)cc3F)n(C)c(=O)c12
10 | < 5000 | < 5000 | Cn1c(Nc2ccc(I)cc2F)c(C(=O)NOCCO)c2scnc2c1=O
